Measurements as given in patent US4943595A, “Perfluorochemicals and process for preparing the same” (The Green Cross Corporation, priority 1984, dated 1990).
Where two headings read alike, the source gives them in different places.

Key:
[1] = Stability of emulsion stored at 4° C. (change of particle size); assay type: physicochemical; parameters: key: Excellent: Particle size is hardly increased one month after the storage.; Good: The increase of the particle size is at most 50% or liquid-particle separation is observed one month after the storage; conditions: one month at 4° C., emulsion sterilized 100° C. 30 min
Description: (§1) According to the above preparation method of the emulsion, the emulsions of various perfluoroalkyl ether derivatives are prepared. Nine parts by volume of the resulting emulsion were diluted with 1 part by volume of an electrolyte solution of the following composition:
(§2) The emulsions were sterized by heating at 100° C. for 30 minutes in a nitrogen atmosphere. The emulsions were used for the following test.
The emulsions were stored at 4° C. and the stability was measured in terms of the change of the particle size by the following measures.
Good: The increase of the particle size is at most 50% or liquid-particle separation is observed one month after the storage.

[2] = Vapor pressure of the perfluorochemical; conditions: 38° C.
[3] = Elimination property: half reduction term in the body of the rat; assay type: in vivo
Description: as §1, §2
This property was measured by the half reduction term in the body of the rat, and evaluated as follows: […]

wister male rats = assay: Acute toxicity after intravenous injection of emulsion, observed by dissection (pulmonary emphysema); assay type: in vivo; conditions: i.v., rat, one week after injection
Description: as §1, §2
The emulsions which had been made physiologically isotonic were injected intravenously to the wister male rats of 100 to 200 g. One week after the injection acute toxicity was observed by dissection, and evaluation was effected according to the following measures.
Toxic: Occurrence of pulmonary emphysema. LD50 : 2-4 g/kg
Non toxicic: No occurence of pulmonary emphysema. LD50 : above 20 g/kg

[4] = 37° C.; cited from earlier work
[5] = comparison between perfluorochemicals; cited from earlier work

Q: Which “Stability of Emulsion” value [1] does the source give for `FC(F)(F)C(F)(F)OC(C(F)(F)F)(C(F)(C(F)(F)F)C(F)(F)F)C(F)(C(F)(F)F)C(F)(F)F` here?
A: The value was “excellent”.

Q: Which Vapor pressure [2] does the source give for `FC(F)(F)C(F)(F)C(F)(F)OC(F)(F)C(F)(F)C(F)(F)C(F)(F)C(F)(F)C(F)(F)C(F)(F)F` [Example 18, Perfluoro-1-n-propoxyheptane] here?
A: The Vapor pressure was 15-16 mmHg.

Q: And the Elimination property [3]?
A: Its Elimination property is “poort”.

Q: What about the “Stability of Emulsion” value [1] of the same compound?
A: Its value is “good”.

Q: Which results are given for `FC(F)(F)C(F)(F)C(F)(F)C(F)(F)OC(C(F)(F)F)(C(F)(F)F)C(F)(F)C(F)(F)C(F)(F)F` [drawing 61]?
A: Toxicity (wister male rats): Non tox- ic; Stability of Emulsion [1]: Excellent

Q: For `FC(F)(F)C(F)(F)C(F)(F)OC(F)(C(F)(C(F)(F)F)C(F)(F)F)C(F)(C(F)(F)F)C(F)(F)F` [drawing 62], which Elimination property [3] is on record?
A: Its Elimination property is “fair”.

Q: What about the “Stability of Emulsion” value [1] of the same compound?
A: The value was “excellent”.

Q: Which “Stability of Emulsion” value [1] does the source give for `FC(F)(F)OC(F)(C(F)(F)F)C(F)(F)C(C(F)(F)F)(C(F)(F)C(F)(F)F)C(F)(F)C(F)(F)F` (stereo not drawn) [drawing 63] here?
A: Its value is “good”.

Q: What does the source list for `FC1(F)C(F)(F)C(F)(F)[C@]2(F)C(F)(F)C(F)(F)C(F)(F)C(F)(F)[C@]2(F)C1(F)F` [perfluoro-cis-decalin]?
A: Vapor pressure [4]: 10.1 mmHg; elimination rate (in words) [5]: slightly higher elimination rate than the trans isomer

Q: With `FC1(F)C(F)(F)C(F)(F)[C@]2(F)C(F)(F)C(F)(F)C(F)(F)C(F)(F)[C@@]2(F)C1(F)F` [trans isomer] as the compound, how does the Vapor pressure [4] read?
A: The Vapor pressure was 11.6 mmHg.
